Like-named read-outs stand apart in the source and are kept apart here.
What was measured:
CB1 receptor [1] = biological target: T1, CB1 receptor (Homo sapiens, UniProt P21554); settings: cited from earlier work; for Intersubject Variability of VT (SD/mean) / VT: human; for VT: mean±SD
CB1 receptor [2] = settings: ref Terry et al., 2010, cited from earlier work; for Specific binding (%) / VT (striatum) Baseline / VT (striatum) Preblocked: monkey striatum
Lipophilicity LogD7.4 = type: physicochemical; settings: n-octanol / 0.15 M sodium phosphate buffer pH 7.4, room temperature, 6 measurements
CB1 receptor [3] = biological target: T1, CB1 receptor; type: binding
[4] = Frontal, n=17, 150min, ref Terry et al, 2009
[5] = Putamen, n=17, 150min, ref Terry et al, 2009
[6] = Thalamus, n=17, 150min, ref Terry et al, 2009
[7] = Cingulate, n=10, 90min, ref Wong et al, 2010
[8] = Globus pallidus, n=10, 90min, ref Wong et al, 2010
[9] = Putamen, n=10, 90min, ref Wong et al, 2010
[10] = human parietal cortex, displacement of [3H]MePPEP, n=6
[11] = Frontal, n=9, 120min, ref Terry et al., 2010
[12] = Putamen, n=9, 120min, ref Terry et al., 2010
[13] = Thalamus, n=9, 120min, ref Terry et al., 2010

T1 sequence (P21554 whole entry): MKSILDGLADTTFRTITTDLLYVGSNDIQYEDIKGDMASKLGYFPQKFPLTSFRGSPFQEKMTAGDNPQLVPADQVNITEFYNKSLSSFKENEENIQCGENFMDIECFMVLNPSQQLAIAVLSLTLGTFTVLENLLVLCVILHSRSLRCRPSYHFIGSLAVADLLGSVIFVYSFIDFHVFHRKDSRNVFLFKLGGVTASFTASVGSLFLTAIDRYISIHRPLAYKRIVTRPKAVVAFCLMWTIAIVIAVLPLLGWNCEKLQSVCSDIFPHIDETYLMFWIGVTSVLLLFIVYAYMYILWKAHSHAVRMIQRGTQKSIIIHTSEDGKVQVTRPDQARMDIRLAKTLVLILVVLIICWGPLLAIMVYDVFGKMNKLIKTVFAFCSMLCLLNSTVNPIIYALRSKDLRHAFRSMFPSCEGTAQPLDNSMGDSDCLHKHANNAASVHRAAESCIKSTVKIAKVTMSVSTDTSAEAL

Compound: Cc1ccc(OC(C)(C)C(=O)N[C@@H](C)[C@@H](Cc2ccc(OCCF)cc2)c2cccc(C#N)c2)nc1 [^18F-MK-9470]
- Intersubject Variability of VT (SD/mean) (CB1 receptor [1]; Frontal, n=12, 700, 360, 150min, ref Sanabria-Bohórquez et al., 2010): 58%
- Intersubject Variability of VT (SD/mean) (CB1 receptor [1]; Putamen, n=12, 700, 360, 150min, ref Sanabria-Bohórquez et al., 2010): 53%
- Intersubject Variability of VT (SD/mean) (CB1 receptor [1]; Thalamus, n=12, 700, 360, 150min, ref Sanabria-Bohórquez et al., 2010): 60%

Compound: C[C@@H](N[C@@H]1C[C@H](c2cccc(O[11CH3])c2)N(c2ccc(C(F)(F)F)cc2)C1=O)c1ccccc1 [^11C-MePPEP]
- Specific binding (%) (CB1 receptor [2]): 88%
- VT (striatum) Baseline (CB1 receptor [2]): 24.3 mL·cm^−3
- VT (striatum) Preblocked (CB1 receptor [2]): 2.9 mL·cm^−3
- LogD7.4 (Lipophilicity LogD7.4): 4.77±0.27
- VT (CB1 receptor [1]; [4]): 22.4±12.8 mL · cm^−3
- Intersubject Variability of VT (SD/mean) (CB1 receptor [1]; [4]): 57%
- VT (CB1 receptor [1]; [5]): 29.1±17.4 mL · cm^−3
- Intersubject Variability of VT (SD/mean) (CB1 receptor [1]; [5]): 60%
- VT (CB1 receptor [1]; [6]): 11.2±5.0 mL · cm^−3
- Intersubject Variability of VT (SD/mean) (CB1 receptor [1]; [6]): 44%

Compound: COc1ccc(-c2c(C#N)c(C(=O)NN3CCCCC3)nn2-c2ccc(Cl)cc2Cl)cc1 [^11C-OMAR]
- Ki (CB1 receptor [3]): 2.05 nM
- VT (CB1 receptor [1]; [7]): 1.23±0.16 mL · cm^−3
- Intersubject Variability of VT (SD/mean) (CB1 receptor [1]; [7]): 13%
- VT (CB1 receptor [1]; [8]): 1.47±0.25 mL · cm^−3
- Intersubject Variability of VT (SD/mean) (CB1 receptor [1]; [8]): 17%
- VT (CB1 receptor [1]; [9]): 1.32±0.20 mL · cm^−3
- Intersubject Variability of VT (SD/mean) (CB1 receptor [1]; [9]): 15%

Compound: N#Cc1ccc(S(=O)(=O)NC(=N)N2CC(c3ccccc3)C(c3ccc(Cl)cc3)=N2)cc1 (stereo not drawn) [^11C-SD5024, [cyano-^11C](−)-3-(4-chlorophenyl)-N-[(4-cyanophenyl)sulfonyl]-4-phenyl-4,5-dihydro-1H-pyrazole-1-carboxamidine]
- Ki (CB1 receptor [3]; [10]): 0.47 nM

Compound: [2H]C([18F])Oc1cccc([C@H]2C[C@@H](N[C@H](C)c3ccccc3)C(=O)N2c2ccc(C(F)(F)F)cc2)c1 (stereo partly shown) [^18F-FMPEP-d2]
- percentage of specific binding in monkey brain (CB1 receptor [2]; monkey brain): 85%
- Specific binding (%) (CB1 receptor [2]): 85%
- VT (striatum) Baseline (CB1 receptor [2]): 35.4 mL·cm^−3
- VT (striatum) Preblocked (CB1 receptor [2]): 5.4 mL·cm^−3
- LogD7.4 (Lipophilicity LogD7.4): 4.24±0.08
- VT (CB1 receptor [1]; [11]): 22.7±6.4 mL · cm^−3
- Intersubject Variability of VT (SD/mean) (CB1 receptor [1]; [11]): 28%
- VT (CB1 receptor [1]; [12]): 24.3±7.2 mL · cm^−3
- Intersubject Variability of VT (SD/mean) (CB1 receptor [1]; [12]): 29%
- VT (CB1 receptor [1]; [13]): 9.6±2.5 mL · cm^−3
- Intersubject Variability of VT (SD/mean) (CB1 receptor [1]; [13]): 26%
- peak brain uptake (CB1 receptor [1]; species not given, ref Terry et al., 2010): ~ 6 SUV

Compound: COc1ccc(-c2c(C#N)c(C(=O)NN3CCCCC3)nn2-c2ccc(Cl)cc2Cl)cc1 [OMAR]
- Ki (CB1 receptor [3]; [10]): 2.05 nM

From PMC3849221 (NeuroImage, 2013)
